Experimental data: patent US20180051346A1, “METHODS AND MEANS FOR SUBTYPING INVASIVE LOBULAR BREAST CANCER” (Stichting Het Nederlands Kanker Instituut-Antoni van …, priority 2015, published 2018)

System: ILC cell lines
Assay: Drug sensitivity on the Sanger cell line panel, differential response between IR and HR subtype cell lines
Assay type: cell-based
Settings: IR subtype cell lines (10) vs HR subtype cell lines (5); two-sided t-test between the AUC of the dose-response curves; Sanger response data (Garnett et al., 2012)
Description: Drug sensitivity was assessed on the Sanger cell line panel (internal version 17). We used the cell lines common in our ILC cell line panel and in the Sanger cell line panel. We used cell line AU565 instead of SK-BR-3, which is derived from the same patient. Among the 262 drugs, we focused our assessment on 88 agents that had measurement in at least three cell lines per subtype. With this dataset, we performed a two-sided t-test between the AUC of the dose-response curves of the cell lines in the two subtypes, correcting for multiple testing with the Benjamini-Hochberg method.
To identify candidate therapeutic options, we profiled a set of 15 ILC cell lines as in vitro models. We used their gene expression profiles to map them to the IR (10 cell lines) and HR (5 cell lines). We then used the response data for 88 drugs on a subset of these cell lines, as provided by the Wellcome Trust Sanger Institute (Garnett et al., 2012. Nature 483: 570-575), to test for differential drug sensitivity between the subtypes. We retained six drugs at an FDR<0.25 (FIG. 2).

Molecule	differential drug sensitivity between the subtypes
CCc1c2c(nc3ccc(O)cc13)-c1cc3c(c(=O)n1C2)COC(=O)[C@]3(O)CC [SN-38, (+)-(4S)-4,11-diethyl-4,9-dihydroxy-1H-pyrano[3′,4′:6,7]-indolizino[1,2-b]quinoline-3,14(4H,12H)-dione]	more sensitive
N.N.[Cl][Pt][Cl] [Cisplatin]	more sensitive
Bleomycin	more sensitive
